# Source: patent US20110077231A1, “COMPOUNDS” (BOEHRINGER INGELHEIM INTERNATIONAL GMBH, priority 2007, published 2011)
# Target: T1, hBK1 receptor (Homo sapiens, UniProt P46663)
# T1 construct: expressed in transfected cells; host or cells: CHO cells (membrane homogenate)
# T1 sequence (P46663 1-353): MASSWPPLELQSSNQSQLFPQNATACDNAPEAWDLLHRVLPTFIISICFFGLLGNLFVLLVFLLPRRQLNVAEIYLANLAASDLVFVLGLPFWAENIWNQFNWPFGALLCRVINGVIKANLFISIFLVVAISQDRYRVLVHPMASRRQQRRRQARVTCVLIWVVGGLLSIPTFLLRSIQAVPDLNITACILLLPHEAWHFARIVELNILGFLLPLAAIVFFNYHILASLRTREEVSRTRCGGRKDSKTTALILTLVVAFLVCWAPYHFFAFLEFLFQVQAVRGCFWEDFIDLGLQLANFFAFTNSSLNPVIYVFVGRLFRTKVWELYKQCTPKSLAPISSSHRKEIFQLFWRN
# Experiment: hBK1 receptor binding (radioligand displacement on CHO cell membranes)
# Details: membranes of CHO cells expressing the hBK1 receptor; 0.5 to 1.0 nM [3H]-kallidin (DesArg10, Leu9); 60 minutes at room temperature
# Protocol: Description of the Method of hBK1 Receptor Binding
# CHO cells expressing the hBK1 receptor are cultivated in Dulbecco's modified medium. The medium from confluent cultures is removed and the cells are washed with PBS buffer, scraped off and isolated by centrifugation. The cells are then homogenized in suspension and the homogenate is centrifuged and resuspended. The protein content is determined and the membrane preparation obtained in this manner is then frozen at −80° C. After thawing, 200 μl of the homogenate (50 to 100 μg of proteins/assay) are incubated at room temperature with 0.5 to 1.0 nM of kallidin (DesArg10, Leu9), [3,4-prolyl-3,43H(N)] and increasing concentrations of the test substance in a total volume of 250 μl for 60 minutes. The incubation is terminated by rapid filtration through GF/B glass fibre filters which had been pretreated with polyethyleneimine (0.3%). The protein-bound radioactivity is measured in a TopCount NXT. Non-specific binding is defined as radioactivity bound in the presence of 1.0 μM of […]. The concentration/binding curve is analysed using a computer-assisted nonlinear curve fitting. The Ki which corresponds to the test substance is determined using the data obtained in this manner. […]
row,Ki [µM],Compound
1,0.015,COc1cc(C)c(S(=O)(=O)N(C)CCOCC(=O)N(C)[C@H]2CC[C@H](OCCN3CCCC3)CC2)c(C)c1 [Example 2]
2,0.0536,COc1cc(C)c(S(=O)(=O)N(C)CCOCC(=O)N(C)[C@H]2CC[C@H](OCCN(C)C)CC2)c(C)c1 [Example 1]
